EP2740727B1, “Quinazolinone analogues for use as anticonvulsant agents” (King Saud University, priority 2012, dated 2014)
Read-outs that look alike come from different tables or passages of the source.

Experiments:
[1] = tested on: Pentylenetetrazole (PTZ)-induced convulsion; assay: Pentylenetetrazole (PTZ) seizure threshold test; assay type: in vivo, Swiss albino mice; conditions: for ED50: Mus musculus, ip, median effective dose, mice, log-probit method; for % Protection: PTZ 100 mg/kg i.p. 30 min later, 4 animals; for protection against PTZ-induced seizures: dose not given (tested 25, 50, 100 and 200 mg/kg i.p.)
Description: Adult male Swiss […] mice (22-28 g), approximately 10-week old, were used to conduct the anticonvulsant evaluation. They were housed in cages and kept at a temperature of 20 ± 2°C and a relative humidity of 55 ± 5% with a light-dark cycle of 12 h and fed with standard diet and water ad libitum. […] A control group of mice was included and received intraperitoneal (i.p.) injections of the test compounds' vehicle. […] Picrotoxin (pic) was freshly dissolved in 1 ml 0.1N warmed HCl and the final volume was made up with 0.9% NaCl.
A single 5 seconds episode of clonic spasms was taken as a threshold seizure.
In each of the chemical and the electrical methods described above, Swiss albino mice were divided into 4 groups (N = 4 animals).

in vivo [2] = conditions: mouse, ip
Description: (§1) Median effective (ED50), and median sedative (TD50) were calculated.

in vivo [3] = conditions: mouse, ip; remark: listed apart in the source
Description: (§2) The acute toxicity detenninatioii (LD50) for compounds of formula 1 was performed. Compounds were given intraperitoneally (i.p.) in doses ranging from 0.1-5 mmol/kg. […] All behavioral changes and death during the observation periods were recorded. […] The protective index (PI) and therapeutic index (TI) of each compound were calculated.
(§3) Initially the approximate LD50 of each test compound was determined. Albino Swiss mice (25 g body weight) were then divided into 4 groups (6 mice each). […] The animals were then observed closely for 4 hours and then occasionally for 72 hours. The percentage of death in each group was then calculated.

Albino Swiss mice [4] = assay: Acute toxicity determination (LD50); conditions: Therapeutic index = LD50/ED50
Description: as §2, §3

motor performance = assay: Minimal neurotoxicity (chimney test), motor performance; conditions: Protective index = TD50/ED50
Description: as §1

Albino Swiss mice [5] = conditions: mouse, in vivo, 72 h
Description: as §2, §3

COc1cc2nc(SCC(=O)NN)n(Cc3ccccc3)c(=O)c2cc1OC [Compound 70, 2-(3-Benzyl-6,7-dimethoxy-4-oxo-3,4-dihydro-quinazolin-2-yl-thio)acetohydrazide]
ED50 [1]: 32 mg/kg | % Protection ([1]; dose 50 mg/Kg i.p. [sic]): 100% | protection against PTZ-induced seizures [1]: 100% | TD50 (in vivo [2]): 149 mg/kg | LD50 at 72 h (in vivo [3]; Albino Swiss): 360 mg/kg | TI (Albino Swiss mice [4]): 11.25 | PI (motor performance): 4.67

CCC(=O)NNC(=O)CSc1nc2ccc(Cl)cc2c(=O)n1-c1ccccc1 [Compound 89, N'-[2-(6-Chloro-4-oxo-3-phenyl-3,4-dihydro-quinazolin-2yl-thio)acetyl]propionohydrazide]
ED50 [1]: 11.8 mg/kg | % Protection ([1]; dose 50 mg/Kg i.p. [sic]): 100% | protection against PTZ-induced seizures [1]: 100% | TD50 (in vivo [2]): 100 mg/kg | LD50 at 72 h (in vivo [3]; Albino Swiss): 290 mg/kg | TI (Albino Swiss mice [4]): 24.6 | PI (motor performance): 8.5

CC(=O)NNC(=O)CSc1nc2ccc(Cl)cc2c(=O)n1Cc1ccccc1 [Compound 105, N'-Acetyl-2-(3-benzyl-6-chloro-4-oxo-3,4-dihydro-quinazolin-2-yl-thio)acetohydrazide]
ED50 [1]: 24.8 mg/kg | % Protection ([1]; dose 150 mg/Kg i.p.): 100% | protection against PTZ-induced seizures [1]: 100% | TD50 (in vivo [2]): 215 mg/kg | LD50 at 72 h (in vivo [3]; Albino Swiss): 240 mg/kg | TI (Albino Swiss mice [4]): 9.7 | PI (motor performance): 8.7

CCC(=O)NNC(=O)CSc1nc2cc(OC)c(OC)cc2c(=O)n1Cc1ccccc1 [Compound 110, N'-(2-(3-Benzyl-6,7-dimethoxy-4-oxo-3,4-dihydro-quinazolin-2-yl-thio)acetyl)propionohydrazide]
ED50 [1]: 32.7 mg/kg | % Protection ([1]; dose 150 mg/Kg i.p.): 100% | protection against PTZ-induced seizures [1]: 100% | TD50 (in vivo [2]): 134 mg/kg | LD50 at 72 h (in vivo [3]; Albino Swiss): 168 mg/kg | TI (Albino Swiss mice [4]): 5.1 | PI (motor performance): 4.1

O=C(CCc1ccccc1)NNC(=O)CSc1nc2ccc(Cl)cc2c(=O)n1Cc1ccccc1 [Compound 115, N'-(2-(3-Benzyl-6-chloro-4-oxo-3,4-dihydro-quinazolin-2-yl-thio)acetyl)-3-phenylpropanehydrazide]
ED50 [1]: 29.5 mg/kg | % Protection ([1]; dose 150 mg/Kg i.p.): 100% | protection against PTZ-induced seizures [1]: 100% | TD50 (in vivo [2]): 136 mg/kg | LD50 at 72 h (in vivo [3]; Albino Swiss): 290 mg/kg | TI (Albino Swiss mice [4]): 9.8 | PI (motor performance): 4.6

CCCC(CCC)C(=O)[O-].[Na+] [Sodium Valproate, Sodium valproate, reference compound]
ED50 [1]: 189 mg/kg | % Protection ([1]; dose 50 mg/Kg i.p. [sic]): 100% | TI (Albino Swiss mice [5]): 5.2 | TD50 (in vivo [2]): 470 mg/kg | LD50 at 72 h (in vivo [3]): 985 mg/kg
